{"source": "patent US11911349B2", "about": "“Rapidly improving vascular conditions by administering vitamin K” (NATTOPHARMA AS, priority 2018, dated 2024)", "key": {"ApoE/LDLR−/− mice [1]": {"test_system": "ApoE/LDLR−/− mice", "assay": "Example 3: MRI assessment of FMD in femoral artery and Ach response in abdominal aorta, young mice", "type": "in vivo", "details": "for improvement in endothelial function compared with low dose (0.05 mg/kg) for 4 weeks: four weeks", "procedure": "In a first part of the study, the effects of low doses (0.05 mg/kg b.w./day) as well as higher doses (0.5 mg/kg b.w./day and 5 mg/kg b.w./day) of vitamin K2 (MK-7, referred to in this example as simply “vitamin K2,” unless noted otherwise) on endothelial function in ApoE/LDLR−/−mice without well-established atherosclerotic plaque and with early phase of endothelial dysfunction were assessed.\nMice were randomly assigned to one of four experimental groups: control (untreated group) and three groups treated with vitamin K2 at a dose of 0.05, 0.5, and 5 mg/kg b.w./day, respectively. End-point measurements were performed at the age of 10-16 weeks.\nMagnetic resonance imaging (MRI) experiments were performed using a 9.4T scanner (BioSpec 94/20 USR, Bruker, Germany) located in the Department of Magnetic Resonance Imaging, Institute of Nuclear Physics, Polish Academy of Sciences in Krakow. During the experiment, mice were anaesthetized using isoflurane (Aerrane, Baxter Sp. z o. o., Poland, 1.7 vol %) in an oxygen and air (1:2) mixture and imaged in the supine position. Activity of the heart, respiration, and body temperature (maintained at 37° C. using circulating warm water) were monitored using a Monitoring and Gating System (SA Inc., Stony Brook, N.Y., USA).\nEndothelial function was assessed based on vascular responses to acetylcholine (Ach) administration in brachiocephalic artery (BCA), left common carotid artery (LCA) (FIGS. 6 A and B) and abdominal aorta (AA) (FIG. 6C) as well as to responses to increase in flow (flow-mediated dilatation, FMD) in femoral artery (FA) (FIG. 6D) as described in Bar A, Skorka T, Jasinski K, Sternak M, Bartel Ż, Tyrankiewicz U, et al. Retrospectively-gated MRI for in vivo assessment of endothelium-dependent vasodilatation and endothelial permeability in murine models of endothelial dysfunction. NMR Biomed 2016; 29(8):1088; Sternak M, Bar A, Adamski M G, Mohaissen T, Marczyk B, Kieronska A, et al. The Deletion of Endothelial Sodium Channel α (αENaC) Impairs Endothelium-Dependent Vasodilation and Endothelial Barrier Integrity in Endotoxemia in Vivo. Front Pharmacol 2018; 9:178. doi:10.3389/fphar.2018.00178; and Bar A, Olkowicz M, Tyrankiewicz U, Kus E, Jasinski K, Smolenski R T, et al. Functional and Biochemical Endothelial Profiling In Vivo in a Murine Model of Endothelial Dysfunction; Comparison of Effects of 1-Methylnicotinamide and Angiotensin-converting Enzyme Inhibitor. Front Pharmacol 2017; 8:183. doi:10.3389/fphar.2017.00183).\nVasomotor response was examined by comparing two time-resolved 3D images of the vessels prior to and 25 minutes after intraperitoneal Ach administration (Sigma-Aldrich, Poznan Poland: 50 μl, 16.6 mg/kg), as well as prior to and 5 minutes after vessel occlusion. Images were acquired using the cine IntraGate™ FLASH 3D sequence, reconstructed with the IntraGate 1.2.b.2 macro (Bruker). End-diastolic volumes of vessels were analyzed using ImageJ software 1.46r (NIH Bethesda, Md., USA) and scripts written in Matlab (MathWorks, Natick, Mass., USA). Imaging parameters included the following: repetition time (TR)—6.4 ms, echo time (TE)—1.4 ms, field of view (FOV)—30×30×5 mm3, matrix size—256×256×30, flip angle (FA)—30°, and number of accumulations (NA)—15, reconstructed to 7 cardiac frames. Total scan time was 10 minutes."}, "ApoE/LDLR−/− mice [2]": {"test_system": "ApoE/LDLR−/− mice", "assay": "Example 3: histological assessment of area and composition of atherosclerotic plaque in BCA, older mice", "type": "in vivo", "details": "eight weeks; for decrease in vessel wall area (VWA): 24-week-old mice", "source_text": "For the determination of atherosclerotic plaque area and composition isolated brachiocephalic artery (BCA) was dissected, fixed in 4% buffered formalin, and embedded in paraffin. 5 μm-thick serial sections of BCA were collected from the proximal to distal part of the artery. Staining with Unna's orcein combined with Martius, Scarlet and Blue trichrome (OMSB) was applied on every tenth section (50 μm interval between each section) for quantitative analysis of atherosclerotic plaques. The areas of particular components of atherosclerotic plaque as well as artery lumen and wall were determined after Columbus-based software processing (FIG. 9) using specially-designed algorithm as described in Gajda M, Jasztal A, Banasik T, Jasek-Gajda E, Chlopicki S. Combined orcein and martius scarlet blue (OMSB) staining for qualitative and quantitative analyses of atherosclerotic plaques in brachiocephalic arteries in apoE/LDLR−/− mice. Histochem Cell Biol 2017. doi:10.1007/s00418-017-1538-8. The parameters analyzed include vessel wall area (VWA), internal vessel area (IVA=plaque area+lumen area), plaque area (expressed as percent of internal wall area: plaque/IWA), and lumen area (expressed as percent of internal wall area: lumen/IWA)."}, "thrombin generation": {"test_system": "thrombin generation", "assay": "Example 3: thrombin generation by calibrated automated thrombogram (CAT) in plasma", "type": "in vivo, mice", "details": "eight weeks", "procedure": "Thrombin generation was measured in platelet-poor mice plasma using calibrated automated thrombography (CAT) technique as described in Hemker H C, Giesen P, Al Dieri R, Regnault V, de Smedt E, Wagenvoord R, et al. Calibrated automated thrombin generation measurement in clotting plasma. Pathophysiol Haemost Thromb 2003; 33:4-15. doi:71636. Thrombin generation was activated by mixing 21 μL of diluted plasma (1:1 with BSA5 buffer) with 7 μIL of fluorogenic substrate (Z-Gly-Gly-Arg-AMC, 16.6 mM) and 14 μL of trigger solution containing phospholipids, tissue factor and CaCl2 (4 μM, 1 pM and 16.6 mM, respectively). In the calibration wells, the 14 μL of reagents were replaced with calibrator (102 nM). Immediately after the activation, 5 μL of the mixture was pipetted on paper disks in a flat bottom 96-well polystyrene plate and covered with 40 μL of mineral oil. Fluorescent signals were measured using the Fluoroskan Ascent software (Thermo Labsystems, Helsinki, Finland) and transformed into thrombin concentration as described in Hemker H C, Kremers R. Data management in Thrombin Generation. Thromb Res 2013; 131:3-11. doi:10.1016/j.thromres.2012.10.011. The parameters analyzed included endogenous thrombin potential (ETP), peak thrombin concentration (peak), and lag time."}, "[3]": {"details": "mouse, in vivo"}}, "data": [{"smiles": "CC(C)=CCC/C(C)=C/CC/C(C)=C/CC/C(C)=C/CC/C(C)=C/CC/C(C)=C/CC/C(C)=C/CC1=C(C)C(=O)c2ccccc2C1=O", "note": "[MK-7, menaquinone-7]", "values": [{"measurement": "Ach response in AA, volume changes", "setting": "ApoE/LDLR−/− mice [1]; 0.05 mg/kg b.w./day, eight weeks, untreated −16.22%, p=0.05", "result": "−0.65", "unit": "%"}, {"measurement": "magnitude of endothelium-dependent response to acetylcholine in abdominal aorta (ACH-AA)", "setting": "ApoE/LDLR−/− mice [1]; 0.05 mg/kg b.w./day, two weeks", "result": "lack of changes"}, {"measurement": "magnitude of vasodilatation in response to increase in flow in femoral artery (FMD-FA)", "setting": "ApoE/LDLR−/− mice [1]; 0.05 mg/kg b.w./day, two weeks", "result": "lack of changes"}, {"measurement": "improvement in endothelial function compared with low dose (0.05 mg/kg) for 4 weeks", "setting": "ApoE/LDLR−/− mice [1]; 0.5 mg/kg b.w./day", "result": "not superior"}, {"measurement": "improvement in endothelial function compared with low dose (0.05 mg/kg) for 4 weeks", "setting": "ApoE/LDLR−/− mice [1]; 5 mg/kg b.w./day", "result": "not superior"}, {"measurement": "Ach response in AA, volume changes", "setting": "ApoE/LDLR−/− mice [1]; 5 mg/kg b.w./day, two weeks, untreated −7.72%, p=0.1", "result": 0.16, "unit": "%"}, {"measurement": "lumen area expressed as percent of IWA", "setting": "ApoE/LDLR−/− mice [2]; high dose 10 mg/kg b.w./day", "result": "did not change"}, {"measurement": "plaque area expressed as percent of IWA", "setting": "ApoE/LDLR−/− mice [2]; high dose 10 mg/kg b.w./day", "result": "did not change"}, {"measurement": "plaque size compared with non-treated mice", "setting": "ApoE/LDLR−/− mice [2]; high dose 10 mg/kg b.w./day", "result": "not different"}, {"measurement": "decrease in vessel wall area (VWA)", "setting": "ApoE/LDLR−/− mice [2]; high dose 10 mg/kg b.w./day", "result": "about 5%"}, {"measurement": "lumen area expressed as percent of IWA", "setting": "ApoE/LDLR−/− mice [2]; low dose 0.03 mg/kg b.w./day", "result": "did not change"}, {"measurement": "plaque area expressed as percent of IWA", "setting": "ApoE/LDLR−/− mice [2]; low dose 0.03 mg/kg b.w./day", "result": "did not change"}, {"measurement": "plaque size compared with non-treated mice", "setting": "ApoE/LDLR−/− mice [2]; low dose 0.03 mg/kg b.w./day", "result": "not different"}, {"measurement": "decrease in vessel wall area (VWA)", "setting": "ApoE/LDLR−/− mice [2]; low dose 0.03 mg/kg b.w./day", "result": "about 5%"}, {"measurement": "internal wall area (IWA)", "setting": "ApoE/LDLR−/− mice [2]; lower dose, data not shown, not visible for entire vessel", "result": "decreased only in the middle part of the vessel"}, {"measurement": "thrombin generation", "setting": "thrombin generation; 0.03 mg/kg b.w./day", "result": "did not affect"}, {"measurement": "thrombin generation", "setting": "thrombin generation; 10 mg/kg b.w./day", "result": "did not affect"}, {"measurement": "K1 2,3-epoxide plasma concentration", "setting": "[3]", "result": "tent to decrease"}, {"measurement": "vitamin K1 plasma concentration", "setting": "[3]", "result": "tent to decrease"}, {"measurement": "concentration of MK4 2,3-epoxide in plasma", "setting": "[3]; 5 mg/kg/day", "result": "maintained at similar level"}, {"measurement": "plasma concentration of K2 (MK-7)", "setting": "[3]; 5 mg/kg/day", "result": "dose-dependent increase"}, {"measurement": "plasma concentration of MK-4", "setting": "[3]; 5 mg/kg/day", "result": "dose-dependent increase"}]}]}
